Results: ChEMBL document CHEMBL1201862, “PubChem BioAssay data set” (2004)
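Test compounds were applied to cells in 96-well plates for 48 hours at 5 doses. GI50 marks 50% less growth.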 The source made the active and inactive calls. Rule as the data show it: active = GI50 up to about 1.1 µM and inactive = higher.

Experiments:
Test in all cases: NCI tumour cell line growth inhibition, 48 h
786-0 = system: 786-0
A498 = system: A498
A549 = system: A549
ACHN = system: ACHN
BT-549 = system: BT-549
CAKI-1 = system: CAKI-1
CCRF-CEM = system: CCRF-CEM
COLO 205 = system: COLO 205
DU-145 = system: DU-145
EKVX = system: EKVX
HCC 2998 = system: HCC 2998
HCT-116 = system: HCT-116
HCT-15 = system: HCT-15
HL-60 = system: HL-60
HOP-62 = system: HOP-62
HOP-92 = system: HOP-92
HT-29 = system: HT-29
Hs-578T = system: Hs-578T
IGROV-1 = system: IGROV-1
K562 = system: K562
KM12 = system: KM12
LOX IMVI = system: LOX IMVI
M14 = system: M14
MCF7 = system: MCF7
MDA-MB-231 = system: MDA-MB-231
MDA-MB-435 = system: MDA-MB-435
MDA-N = system: MDA-N
MOLT-4 = system: MOLT-4
Malme-3M = system: Malme-3M
NCI-H226 = system: NCI-H226
NCI-H460 = system: NCI-H460
NCI-H522 = system: NCI-H522
NCI/ADR-RES = system: NCI/ADR-RES
OVCAR-3 = system: OVCAR-3
OVCAR-4 = system: OVCAR-4
OVCAR-5 = system: OVCAR-5
OVCAR-8 = system: OVCAR-8
PC-3 = system: PC-3
RPMI-8226 = system: RPMI-8226
RXF 393 = system: RXF 393
SF-268 = system: SF-268
SF-295 = system: SF-295
SF-539 = system: SF-539
SK-MEL-28 = system: SK-MEL-28
SK-MEL-2 = system: SK-MEL-2
SK-MEL-5 = system: SK-MEL-5
SK-OV-3 = system: SK-OV-3
SN12C = system: SN12C
SNB-19 = system: SNB-19
SNB-75 = system: SNB-75
SR = system: SR
SW-620 = system: SW-620
T47D = system: T47D
TK-10 = system: TK-10
U-251 = system: U-251
UACC-257 = system: UACC-257
UACC-62 = system: UACC-62
UO-31 = system: UO-31
NCI-H23 = system: NCI-H23

COc1ccc(/C=C/c2cc(O)cc(OC3OC(CO)C(O)C(O)C3O)c2)cc1O (stereo unspecified)
GI50 (786-0): > 100 µM (inactive)
GI50 (A498): > 100 µM (inactive)
GI50 (A549): 69.2 µM (inactive)
GI50 (ACHN): 14.8 µM (inactive)
GI50 (BT-549): > 100 µM (inactive)
GI50 (CAKI-1): > 100 µM (inactive)
GI50 (CCRF-CEM): 82.4 µM (inactive)
GI50 (COLO 205): > 100 µM (inactive)
GI50 (DU-145): 37.8 µM (inactive)
GI50 (EKVX): > 100 µM (inactive)
GI50 (HCC 2998): > 100 µM (inactive)
GI50 (HCT-116): 68.7 µM (inactive)
GI50 (HCT-15): 6.01 µM
GI50 (HL-60): > 100 µM (inactive)
GI50 (HOP-62): 37 µM (inactive)
GI50 (HOP-92): > 100 µM (inactive)
GI50 (HT-29): > 100 µM (inactive)
GI50 (Hs-578T): > 100 µM (inactive)
GI50 (IGROV-1): 66.2 µM (inactive)
GI50 (K562): 45.1 µM (inactive)
GI50 (KM12): 18.9 µM (inactive)
GI50 (LOX IMVI): > 100 µM (inactive)
GI50 (M14): > 100 µM (inactive)
GI50 (MCF7): > 100 µM (inactive)
GI50 (MDA-MB-231): > 100 µM (inactive)
GI50 (MDA-MB-435): 82.4 µM (inactive)
GI50 (MDA-N): > 100 µM (inactive)
GI50 (MOLT-4): > 100 µM (inactive)
GI50 (Malme-3M): 67.1 µM (inactive)
GI50 (NCI-H226): > 100 µM (inactive)
GI50 (NCI-H460): > 100 µM (inactive)
GI50 (NCI-H522): 44 µM (inactive)
GI50 (NCI/ADR-RES): 94 µM (inactive)
GI50 (OVCAR-3): > 100 µM (inactive)
GI50 (OVCAR-4): > 100 µM (inactive)
GI50 (OVCAR-5): 67.1 µM (inactive)
GI50 (OVCAR-8): > 100 µM (inactive)
GI50 (PC-3): 49.2 µM (inactive)
GI50 (RPMI-8226): 78.7 µM (inactive)
GI50 (RXF 393): > 100 µM (inactive)
GI50 (SF-268): 42.6 µM (inactive)
GI50 (SF-295): 51.8 µM (inactive)
GI50 (SF-539): 57.1 µM (inactive)
GI50 (SK-MEL-28): > 100 µM (inactive)
GI50 (SK-MEL-2): > 100 µM (inactive)
GI50 (SK-MEL-5): > 100 µM (inactive)
GI50 (SK-OV-3): > 100 µM (inactive)
GI50 (SN12C): > 100 µM (inactive)
GI50 (SNB-19): > 100 µM (inactive)
GI50 (SNB-75): > 100 µM (inactive)
GI50 (SR): > 100 µM (inactive)
GI50 (SW-620): > 100 µM (inactive)
GI50 (T47D): > 100 µM (inactive)
GI50 (TK-10): > 100 µM (inactive)
GI50 (U-251): > 100 µM (inactive)
GI50 (UACC-257): > 100 µM (inactive)
GI50 (UACC-62): 19.4 µM (inactive)
GI50 (UO-31): 19.2 µM (inactive)

O=C(Cc1ccccc1)Nc1nc2ccc(Cl)cc2c2nc(-c3ccco3)nn12
GI50 (786-0): 10.1 µM (inactive)
GI50 (A498): > 60.3 µM (inactive)
GI50 (A549): > 100 µM (inactive)
GI50 (ACHN): 5.02 µM (inactive)
GI50 (BT-549): > 100 µM (inactive)
GI50 (CAKI-1): > 100 µM (inactive)
GI50 (CCRF-CEM): > 100 µM (inactive)
GI50 (COLO 205): > 100 µM (inactive)
GI50 (DU-145): > 100 µM (inactive)
GI50 (EKVX): > 70.8 µM (inactive)
GI50 (HCC 2998): > 100 µM (inactive)
GI50 (HCT-116): 14.8 µM (inactive)
GI50 (HCT-15): > 100 µM
GI50 (HL-60): > 100 µM (inactive)
GI50 (HOP-62): 16.4 µM (inactive)
GI50 (HOP-92): 2.48 µM (inactive)
GI50 (HT-29): > 100 µM (inactive)
GI50 (Hs-578T): 11 µM (inactive)
GI50 (IGROV-1): > 21.6 µM (inactive)
GI50 (K562): > 100 µM (inactive)
GI50 (KM12): > 100 µM (inactive)
GI50 (LOX IMVI): > 100 µM (inactive)
GI50 (M14): > 100 µM (inactive)
GI50 (MCF7): 4.46 µM (inactive)
GI50 (MDA-MB-231): > 21.2 µM (inactive)
GI50 (MDA-MB-435): > 100 µM (inactive)
GI50 (MDA-N): > 100 µM (inactive)
GI50 (MOLT-4): > 100 µM (inactive)
GI50 (Malme-3M): 53.7 µM (inactive)
GI50 (NCI-H226): > 35.6 µM (inactive)
GI50 (NCI-H23): 47.1 µM (inactive)
GI50 (NCI-H460): > 100 µM (inactive)
GI50 (NCI-H522): > 100 µM (inactive)
GI50 (NCI/ADR-RES): > 41.2 µM (inactive)
GI50 (OVCAR-3): > 100 µM (inactive)
GI50 (OVCAR-5): > 100 µM (inactive)
GI50 (OVCAR-8): > 57.9 µM (inactive)
GI50 (PC-3): > 100 µM (inactive)
GI50 (RPMI-8226): > 100 µM (inactive)
GI50 (RXF 393): 17.7 µM (inactive)
GI50 (SF-268): > 62.8 µM (inactive)
GI50 (SF-295): 21.7 µM (inactive)
GI50 (SF-539): 7.69 µM (inactive)
GI50 (SK-MEL-28): > 100 µM (inactive)
GI50 (SK-MEL-2): > 67.9 µM (inactive)
GI50 (SK-MEL-5): 89.5 µM (inactive)
GI50 (SK-OV-3): 39.6 µM (inactive)
GI50 (SN12C): > 100 µM (inactive)
GI50 (SNB-19): > 35.7 µM (inactive)
GI50 (SNB-75): 5.02 µM (inactive)
GI50 (SR): 3.44 µM (inactive)
GI50 (SW-620): > 100 µM (inactive)
GI50 (T47D): > 100 µM (inactive)
GI50 (TK-10): > 35.1 µM (inactive)
GI50 (U-251): 16.8 µM (inactive)
GI50 (UACC-257): > 100 µM (inactive)
GI50 (UACC-62): > 100 µM (inactive)
GI50 (UO-31): > 100 µM (inactive)
